In PubChem BioAssay (NCI):
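Grown in 96-well plates, cells were treated for 48 hours with each compound at five concentrations. Insufficient inhibition: endpoint recorded as highest concentration tested. TGI: concentration producing complete growth inhibition.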

How the values were obtained:
Test in all cases: NCI tumour cell line growth inhibition, 48 h
[1] = tested on: A498 renal
[2] = tested on: A549 NSCLC
[3] = tested on: CAKI-1 renal
[4] = tested on: CCRF-CEM leukemia
[5] = tested on: COLO 205 colon
[6] = tested on: DLD-1 colon
[7] = tested on: DMS 114 small cell lung
[8] = tested on: DMS 273 small cell lung
[9] = tested on: EKVX NSCLC
[10] = tested on: HCC-2998 colon
[11] = tested on: HCT-116 colon
[12] = tested on: HCT-15 colon
[13] = tested on: HL-60(TB) leukemia
[14] = tested on: HOP-18 NSCLC
[15] = tested on: HOP-92 NSCLC
[16] = tested on: HT29 colon
[17] = tested on: IGROV1 ovarian
[18] = tested on: KM20L2 colon
[19] = tested on: LOX IMVI melanoma
[20] = tested on: M19-MEL melanoma
[21] = tested on: MALME-3M melanoma
[22] = tested on: MCF7 breast
[23] = tested on: MOLT-4 leukemia
[24] = tested on: NCI-H226 lung
[25] = tested on: NCI-H23 lung
[26] = tested on: NCI-H460 lung
[27] = tested on: NCI/ADR-RES ovarian
[28] = tested on: OVCAR-3 ovarian
[29] = tested on: OVCAR-4 ovarian
[30] = tested on: OVCAR-5 ovarian
[31] = tested on: OVCAR-8 ovarian
[32] = tested on: P388/ADR leukemia
[33] = tested on: RXF 393 renal
[34] = tested on: SF-268 CNS
[35] = tested on: SF-295 CNS
[36] = tested on: SF-539 CNS
[37] = tested on: SK-MEL-2 melanoma
[38] = tested on: SK-MEL-28 melanoma
[39] = tested on: SK-MEL-5 melanoma
[40] = tested on: SN12C renal
[41] = tested on: SNB-19 CNS
[42] = tested on: SNB-75 CNS
[43] = tested on: SNB-78 CNS
[44] = tested on: SW-620 colon
[45] = tested on: U251 CNS
[46] = tested on: UACC-257 melanoma
[47] = tested on: UACC-62 melanoma
[48] = tested on: UO-31 renal
[49] = tested on: XF 498 CNS

## O=C1c2cccc3cc4ccccc4c(c23)C(=O)N1CCNCCNCCNCCN1C(=O)c2cccc3cc4ccccc4c(c23)C1=O
[1]
  TGI: 566 nM
[2]
  TGI: 1000 nM
[3]
  TGI: 344 nM
[4]
  TGI: 637 nM
[5]
  TGI: 184 nM
[6]
  TGI: 344 nM
[7]
  TGI: 177 nM
[8]
  TGI: 159 nM
[9]
  TGI: 666 nM
[10]
  TGI: 82.9 nM
[11]
  TGI: 1110 nM
[12]
  TGI: 474 nM
[13]
  TGI: 212 nM
[14]
  TGI: 398 nM
[15]
  TGI: 254 nM
[16]
  TGI: 552 nM
[17]
  TGI: 1220 nM
[18]
  TGI: 597 nM
[19]
  TGI: 155 nM
[20]
  TGI: 161 nM
[21]
  TGI: 780 nM
[22]
  TGI: 1870 nM
[23]
  TGI: 212 nM
[24]
  TGI: > 100000 nM
[25]
  TGI: 159 nM
[26]
  TGI: 23.3 nM
[27]
  TGI: 1530 nM
[28]
  TGI: 546 nM
[29]
  TGI: 314 nM
[30]
  TGI: 672 nM
[31]
  TGI: 735 nM
[32]
  TGI: 470 nM
[33]
  TGI: 43.5 nM
[34]
  TGI: 197 nM
[35]
  TGI: 281 nM
[36]
  TGI: 288 nM
[37]
  TGI: 252 nM
[38]
  TGI: 324 nM
[39]
  TGI: 578 nM
[40]
  TGI: 1410 nM
[41]
  TGI: 927 nM
[42]
  TGI: 106 nM
[43]
  TGI: 385 nM
[44]
  TGI: 308 nM
[45]
  TGI: 539 nM
[46]
  TGI: 767 nM
[47]
  TGI: 156 nM
[48]
  TGI: 360 nM
[49]
  TGI: 178 nM
